Laboratory results taken from patent US20190030009A1, “COMPOUNDS AND COMPOSITIONS FOR THE TREATMENT OF CRYPTOSPORIDIOSIS” (Novartis AG, priority 2016, published 2019).

Assays:
[1] = Cytotoxicity against HepG2; assay type: cell-based; conditions: human, HepG2 cells (ATCC HB-8065), 5 days exposure
Description: Cytotoxicity against HepG2 (ATCC# HB-8065), a human liver cancer cell line, was determined as previously described earlier (Manjunatha et al., 2015). Briefly, cells were seeded at a density of 10^5 cells per well, incubated at 37° C. for 24 h and exposed to two-fold serially-diluted compounds for 5 days. Cell viability was monitored using the Cell Proliferation Kit II (Invitrogen). The cytotoxicity values of selected compounds are reported in the fifth column [HepG2 CC50 (μM)] of Table II.

Cryptosporidium parvum = test: Cytopathic effect (CPE) based assay, C. parvum infected HCT-8 cells; conditions: HCT-8 host cell viability (CellTiter-Glo), 48 hours treatment, read-out: Cp CPE EC50
Description: Human ileocecal colorectal adenocarcinoma cells (HCT-8 [HRT-18] ATCC, CCL-34) were maintained in T-175 flasks (Corning, 431080) in complete growth medium (RPMI-1640 medium (Gibco, 11875) supplemented with 10% heat-inactivated horse serum (Gibco, 26050), 1×MEM non-essential amino acids (Gibco, 11140), 10 mM HEPES (Gibco, 15630), 100 units/mL penicillin, and 100 units/mL streptomycin) at 37° C. and 5% CO2 in a humidified incubator. Cultures were passaged twice weekly using 10 mL of 1×Phosphate-Buffered Saline (PBS) without Ca^2+ and Mg^2+ (Gibco, 20012) for washing and 3-5 mL per T-175 flask of TrypLE Express Enzyme (Gibco, 12604) for dissociation of adherent cells.
Cryptosporidium parvum oocysts purchased from the Sterling Laboratory, University of Arizona (Iowa isolate) were purified from infected calf feces using discontinuous sucrose and cesium chloride centrifugation gradients and stored in PBS solution containing 0.01% Tween 20, 100 units/mL penicillin and 100 units/mL gentamicin.
Excystation and infection protocols were developed following established methods with some modifications (Gut & Nelson, 1999, Upton et aL, 1995, Bessoff et aL, 2013). Briefly, oocysts were primed in 1 mL of 10 mM hydrochloric acid in 1× Hank's Balanced Salt Solution (HBSS) (Gibco, 14025) for 10 minutes with agitation at 1000 rpm, 37° C. on an Eppendorf thermomixer, then washed twice with 1 mL of room temperature non-acidic 1× HBSS by centrifugation at 13,000 rpm for 3 minutes at 25° C. Primed oocysts were further excysted at a concentration of 1×10^6 oocysts/μL in parasite infection medium consisting of a pre-warmed and pre-gassed 1:1 formulation of Leibovitz's L-15 medium (Gibco, 11415) and UltraCULTURE medium (Lonza, 12-725F) supplemented with 2 mM sodium taurocholate (Sigma, 86339-1), 10% heat-inactivated horse serum, and 200 μM L-ascorbic acid (Sigma, 95210) at 25° C. for 10 minutes. HCT-8 monolayer cells were infected with excysted cryptosporidium at a specified multiplicity of infection (MOI). All dilutions for subsequent assays were performed in parasite infection medium without sodium taurocholate. Pre-excysted oocysts were enumerated microscopically using a C-Chip disposable hemocytometer (NanoEnTek, DHC-N01).
Compound powders were dissolved in neat DMSO (Fisher, D4121) to 10 mM and stored at 4° C. prior to dilution into source plates. Dilutions were carried out using a Microlab STAR liquid handler (Hamilton) to obtain compound source plates containing the ten-point or eight-point three fold dilutions starting from 10 mM in duplicates. Source plates were stored at 4° C. prior to spotting into assay plates. Before administration, all compound source plates were equilibrated to room temperature. A specified volume of compounds from source plate were spotted to assay plate using an Echo Acoustic liquid handler (LABCYTE, 550) so that the final DMSO concentration was less than 0.5%. Each assay plate a specified number of DMSO-treated negative control wells and a well-studied potent active compound at 100 nM as positive control. As a quality control, all positive and negative-control wells were used to calculate a Z′-value and signal to noise ratio (S:N) for each plate.
Cryptosporidium spp are obligate-intracellular parasites that infect intestinal epithelial cells and the host cell is killed upon parasite egress. […] The loss of epithelial cells is due to both rapid parasite invasion/multiplication/egress and also pro-inflammatory immune response (Adams et al., 1994, Griffiths et al., 1994). We have observed a consistent cytopathic effect (CPE) in HCT-8 cells with C. spp infection the loss of viability of the host cells using CellTiter-Glo reagent.
Confluent HCT-8 cells in T-175 flasks were directly infected with excysted oocysts at an MOI (host to parasite) of 1:2 for C. parvum and 1:4 for C. hominis. The number of host-cells is determined using a NucleoCounter (Chemometec, NC-100) in a control flask. […]

## CN(C(=O)c1ccn2ncc(-c3ccc(C(F)(F)F)cc3)c2c1)c1ccc(C#N)cn1 [Example 13]
[1]
  CC50 at 5 days: > 50000 nM
Cryptosporidium parvum
  EC50: 1540 nM

## CN(C(=O)c1ccn2ncc(-c3ccc4c(cnn4C)c3)c2c1)c1ccc(C#N)cc1 [Example 17]
[1]
  CC50 at 5 days: 2510 nM
Cryptosporidium parvum
  EC50: 58 nM

## CN(C(=O)c1ccn2ncc(-c3ccc(C(N)=O)cc3)c2c1)c1ccc(F)cc1 [Example 20]
[1]
  CC50 at 5 days: 5420 nM
Cryptosporidium parvum
  EC50: 105 nM

## CN(C(=O)c1ccc(C#N)cc1)c1ccn2ncc(-c3ccc(C(F)(F)F)cc3)c2c1 [Example 28]
[1]
  CC50 at 5 days: 9900 nM
Cryptosporidium parvum
  EC50: 2820 nM

## CN(C(=O)c1ccn2ncc(-c3ccc(N)nc3)c2c1)c1ccc(C#N)cc1 [Example 41]
[1]
  CC50 at 5 days: 24100 nM
Cryptosporidium parvum
  EC50: 97 nM

## CN(C(=O)c1ccc(C2CC2)cc1)c1ccn2ncc(-c3ccc(C(F)(F)F)cc3)c2c1 [Example 50]
Cryptosporidium parvum
  EC50: > 20000 nM

## CN(C(=O)c1ccc(F)cn1)c1ccn2ncc(-c3ccc(C(F)(F)F)cc3)c2c1 [Example 51]
Cryptosporidium parvum
  EC50: > 20000 nM

## CN(C(=O)c1ccc(Cl)cc1)c1ccn2ncc(-c3ccc(C(F)(F)F)cc3)c2c1 [Example 55]
Cryptosporidium parvum
  EC50: 7300 nM

## CN(C(=O)c1ccc(F)cc1)c1ccn2ncc(-c3ccc(C(N)=O)cc3)c2c1 [Example 56]
Cryptosporidium parvum
  EC50: 692 nM

## CNc1nnc(-c2ccc(-c3cnn4ccc(N(C)C(=O)c5ccc(F)cc5)cc34)cc2)s1 [Example 57]
Cryptosporidium parvum
  EC50: 5590 nM

## Cc1ccc(-c2cnn3ccc(C(=O)N(C)c4ccc(C#N)cn4)cc23)nc1 [Example 59]
Cryptosporidium parvum
  EC50: > 20000 nM

## COc1ccc(-c2cnn3ccc(C(=O)N(C)c4ccc(C#N)cn4)cc23)nc1 [Example 60]
Cryptosporidium parvum
  EC50: 2370 nM

## CN(C(=O)c1ccn2ncc(-c3ccc(C(N)=O)cn3)c2c1)c1ccc(C#N)cn1 [Example 61]
Cryptosporidium parvum
  EC50: 17800 nM

## CN(C(=O)c1ccn2ncc(-c3ccc(C(N)=O)cc3)c2c1)c1ccc(C(F)(F)F)cn1 [Example 62]
Cryptosporidium parvum
  EC50: 28 nM

## Cc1ccc(N(C)C(=O)c2ccn3ncc(-c4ccc(C(N)=O)cc4)c3c2)nc1 [Example 63]
Cryptosporidium parvum
  EC50: 195 nM

## CNC(=O)c1ccc(-c2cnn3ccc(C(=O)N(C)c4ccc(F)cc4)cc23)cc1 [Example 64]
[1]
  CC50 at 5 days: 4840 nM
Cryptosporidium parvum
  EC50: 143 nM

## Cc1ccc(N(C)C(C)c2ccn3ncc(-c4ccc(C(N)=O)cc4)c3c2)nc1 (stereo not drawn) [Example 65]
[1]
  CC50 at 5 days: 2280 nM
Cryptosporidium parvum
  EC50: 5120 nM

## CC(c1ccn2ncc(-c3ccc(C(N)=O)cc3)c2c1)N1C(=O)COc2cc(F)ccc21 (stereo not drawn) [Example 66]
Cryptosporidium parvum
  EC50: 132 nM

## CNC(=O)c1ccc(-c2cnn3ccc(C(=O)N(C)c4ccc(C#N)cc4)cc23)cc1 [Example 67]
Cryptosporidium parvum
  EC50: 26 nM

## CC(=O)Nc1ccc(-c2cnn3ccc(C(C)N(C)c4ccc(C)cn4)cc23)cc1 (stereo not drawn) [Example 68]
Cryptosporidium parvum
  EC50: 19600 nM

## CC(=O)Nc1ccc(-c2cnn3ccc(C(=O)N(C)c4ccc(C#N)cn4)cc23)cc1 [Example 69]
Cryptosporidium parvum
  EC50: 201 nM

## NC(=O)c1ccc(-c2cnn3ccc(C(=O)N4CCOc5cc(F)ccc54)cc23)cc1 [Example 71]
[1]
  CC50 at 5 days: 1820 nM
Cryptosporidium parvum
  EC50: 571 nM

## CC1COc2cc(F)ccc2N1C(=O)c1ccn2ncc(-c3ccc(C(N)=O)cc3)c2c1 (stereo not drawn) [Example 72]
[1]
  CC50 at 5 days: 5420 nM
Cryptosporidium parvum
  EC50: 1400 nM

## CNC(=O)c1ccc(-c2cnn3ccc(C(=O)N4CCOc5cc(F)ccc54)cc23)cc1 [Example 73]
Cryptosporidium parvum
  EC50: 964 nM

## CNC(=O)c1ccc(-c2cnn3ccc(C(=O)N4c5ccc(F)cc5OCC4C)cc23)cc1 (stereo not drawn) [Example 74]
Cryptosporidium parvum
  EC50: 1240 nM

## CNC(=O)c1ccc(-c2cnn3ccc(C(=O)N(C)c4ccc(C#N)cn4)cc23)cc1 [Example 75]
[1]
  CC50 at 5 days: 19700 nM
Cryptosporidium parvum
  EC50: 66 nM

## CNC(=O)c1ccc(-c2cnn3ccc(C(=O)N(c4ccc(C#N)cn4)C4COC4)cc23)cc1 [Example 76]
Cryptosporidium parvum
  EC50: > 20000 nM

## CN(C(=O)c1ccn2ncc(-c3cnc(N)c(F)c3)c2c1)c1ccc(C#N)cc1 [Example 79]
Cryptosporidium parvum
  EC50: 205 nM

## Cc1cc(-c2cnn3ccc(C(=O)N(C)c4ccc(C#N)cc4)cc23)cc(C)c1N [Example 80]
Cryptosporidium parvum
  EC50: 1170 nM

## Cc1cc(-c2cnn3ccc(C(=O)N(C)c4ccc(C#N)cc4)cc23)cnc1N [Example 81]
Cryptosporidium parvum
  EC50: 683 nM

## CN(C(=O)c1ccn2ncc(-c3ccc(C(N)=O)cc3)c2c1)C1CCC(C#N)CC1 (stereo not drawn) [Example 82]
[1]
  CC50 at 5 days: > 50000 nM
Cryptosporidium parvum
  EC50: > 20000 nM

## CN(C(=O)c1ccn2ncc(-c3cnc(N)nc3)c2c1)c1ccc(C#N)cc1 [Example 83]
[1]
  CC50 at 5 days: > 50000 nM
Cryptosporidium parvum
  EC50: 487 nM

## CN(C(=O)c1ccn2ncc(-c3cnc(N)c(C(F)(F)F)c3)c2c1)c1ccc(C#N)cn1 [Example 84]
Cryptosporidium parvum
  EC50: 4270 nM

## CN(C(=O)c1ccn2ncc(-c3cnc(N)c(C#N)c3)c2c1)c1ccc(C#N)cn1 [Example 85]
[1]
  CC50 at 5 days: 30400 nM
Cryptosporidium parvum
  EC50: 639 nM

## CN(C(=O)c1ccn2ncc(-c3cnc(N)c(Cl)c3)c2c1)c1ccc(C#N)cn1 [Example 86]
Cryptosporidium parvum
  EC50: 501 nM

## CN(C)C(=O)c1cc(-c2cnn3ccc(C(=O)N(C)c4ccc(C#N)cn4)cc23)cnc1N [Example 87]
[1]
  CC50 at 5 days: > 50000 nM
Cryptosporidium parvum
  EC50: 415 nM

## COc1cc(-c2cnn3ccc(C(=O)N(C)c4ccc(C#N)cn4)cc23)cnc1N [Example 88]
Cryptosporidium parvum
  EC50: 2250 nM

## CN(C(=O)c1ccn2ncc(-c3ccc(C(N)=O)cc3)c2c1)c1ccc(Cl)cc1C=O [Example 89]
Cryptosporidium parvum
  EC50: 85 nM

## CNC(=O)c1ccc(-c2cnn3ccc(C(=O)N(c4ccc(C#N)cn4)C4CC4)cc23)cc1 [Example 93]
[1]
  CC50 at 5 days: 28100 nM
Cryptosporidium parvum
  EC50: 152 nM

## CCN(C(=O)c1ccn2ncc(-c3ccc(C(=O)NC)cc3)c2c1)c1ccc(F)cn1 [Example 95]
[1]
  CC50 at 5 days: 13000 nM
Cryptosporidium parvum
  EC50: 630 nM

## CN(C(=O)c1ccn2ncc(-c3cnc(Cl)c(N)c3)c2c1)c1ccc(C#N)cn1 [Example 98]
[1]
  CC50 at 5 days: 10200 nM
Cryptosporidium parvum
  EC50: 2210 nM

## CNC(=O)c1ccc(-c2cnn3ccc(C(=O)N(C)c4ccc(Cl)cc4)cc23)cc1 [Example 99]
[1]
  CC50 at 5 days: 6510 nM
Cryptosporidium parvum
  EC50: 18 nM

## CN(C(=O)c1ccn2ncc(-c3cnc(Cl)c(NS(C)(=O)=O)c3)c2c1)c1ccc(C#N)cn1 [Example 107]
[1]
  CC50 at 5 days: 39700 nM

## CCN(C(=O)c1ccn2ncc(-c3ccc(C(=O)NC)cc3)c2c1)c1ccc(C#N)c(OCCO)n1 [Example 162]
[1]
  CC50 at 5 days: 24400 nM

## CNC(=O)c1ccc(-c2cnn3ccc(S(=O)(=O)N(c4ccc(C#N)cn4)C4CC4)cc23)cc1 [Example 164]
[1]
  CC50 at 5 days: 6980 nM
